Counter-ions that a name gives are not always drawn. Like-named read-outs stand apart in the source and are kept apart here.

The results in this text go back to US9018214B2, “Bicyclic heterocycle compounds and their uses in therapy” (Astex Therapeutics Limited, priority 2011, dated 2015).

Experiment [1] has as its target BIR3 domain of human XIAP (residues 252-350) (Homo sapiens (Human), UniProt P98170). Description: XIAP in vitro competitive displacement binding assay (fluorescence polarization). The following applies: for IC50: read-out: IC50 or PI Xiap: IC50.
The target of experiment [2] is BIR3 domain of human cIAP-1 (residues 267-363) (Homo sapiens (Human), UniProt Q13490). In words: cIAP-1 in vitro competitive displacement binding assay (fluorescence polarization; Probe A AVPIK(5&6FAM)-amide or Probe B AbuRPFK(5&6FAM)-amide). The following applies: for inhibition at 49 µM: Probe A.
Where [3] appears, read: 1 h, read-out: IC50 or PI Xiap: PI.
The mark [4] stands for this setting: 3 h, read-out: IC50 or PI cIAP1: PI.
Setting [5] is: Probe A AVPIK(5&6FAM)-amide, read-out: IC50 or PI cIAP1: IC50.
Where [6] appears, read: Probe B AbuRPFK(5&6FAM)-amide, read-out: IC50 or PI cIAP1: IC50.
Setting [7] is: read-out: IC50 or PI cIAP1: IC50.

With `C[C@@H]1CN(CC(=O)N2CCc3ccc(C(=O)N4CCCC4)cc32)CCN1` [Example 18, 2-((R)-3-Methyl-piperazin-1-yl)-1-[6-(pyrrolidine-1-carbonyl)-2,3-dihydro-indol-1-yl]-ethanone], the figures for the inhibition at 49 µM in experiment [1] (setting [3]) and in experiment [2] (setting [4]) were 47% and 43%, respectively.

Consider `C[C@@H]1CN(CC(=O)N2CC(C)(C)c3c(Cl)cccc32)CCN1` [Example 19, 1-(4-Chloro-3,3-dimethyl-2,3-dihydro-indol-1-yl)-2-((R)-3-methyl-piperazin-1-yl)-ethanone], for which the concentration for half-maximal inhibition (IC50) amounted to 150 µM in experiment [1] and 17 µM in experiment [2] (setting [5]).

As to `C[C@@H]1CN(CC(=O)N2CC(C)(C)c3ccccc32)CCN1` [Example 21, 1-(3,3-Dimethyl-2,3-dihydro-indol-1-yl)-2-((R)-3-methyl-piperazin-1-yl)-ethanone], the inhibition at 160 µM in experiment [1] (1 h, @ 160 μM, read-out: IC50 or PI Xiap: PI) was 45%. In addition, the concentration for half-maximal inhibition (IC50) in experiment [2] (setting [5]) worked out at 27 µM.

For the molecule `C[C@@H]1CN(CC(=O)N2CC3(CCN(C(=O)OCc4ccccc4)CC3)c3ccc(Cl)cc32)CCN1` [Example 23, Benzyl 6-chloro-1-{2-[(3R)-3-methyl-piperazin-1-yl]acetyl}-1,2-dihydro-spiro[indole-3,4′-piperidine]-1′-carboxylate hydrochloride salt], the values for the IC50 in experiment [1] and in experiment [2] (setting [5]) were 18 µM and 11 µM, respectively.

Regarding `C[C@@H]1CN(CC(=O)N2CCc3cc(F)c(-c4ccccc4)cc32)CCN1` [Example 24, 1-(5-Fluoro-6-phenyl-2,3-dihydro-indol-1-yl)-2-((R)-3-methyl-piperazin-1-yl)-ethanone hydrochloride salt], the IC50 in experiment [1] was 7.4 µM; in experiment [2] it was less than 10 µM; in experiment [2] (setting [5]), 2 µM.

Regarding `CNS(=O)(=O)c1cc2c(cc1Br)CCN2C(=O)CN1CCN[C@H](C)C1` [Example 25, 5-Bromo-1-[2-((R)-3-methyl-piperazin-1-yl)-acetyl]-2,3-dihydro-1H-indole-6-sulfonic acid methylamide hydrochloride salt], the concentration for half-maximal inhibition (IC50) was 1.6 µM in experiment [1], 60 µM in experiment [2] (setting [5]) and 61 µM in experiment [2] (setting [6]).

For `C[C@@H]1CN(CC(=O)N2CCc3cc(Br)c(S(=O)(=O)N(C)C)cc32)CCN1` [Example 26, 5-Bromo-1-[2-((R)-3-methyl-piperazin-1-yl)-acetyl]-2,3-dihydro-1H-indole-6-sulfonic acid dimethylamide hydrochloride salt], the IC50 came out at 2.4 µM in experiment [1] and 27 µM in experiment [2] (setting [5]).

As for `CNS(=O)(=O)c1ccc2c(c1)N(C(=O)CN1CCN[C@H](C)C1)CC2` [Example 27, 1-[2-((R)-3-Methyl-piperazin-1-yl)-acetyl]-2,3-dihydro-1H-indole-6-sulfonic acid methylamide], the IC50 in experiment [1] was 2.5 µM; in experiment [2] (setting [5]) it was 59 µM.

Turning to `C[C@@H]1CN(CC(=O)N2CCc3ccc(OC(F)(F)F)cc32)CCN1` [Example 28, 2-((R)-3-Methyl-piperazin-1-yl)-1-(6-trifluoromethoxy-2,3-dihydro-indol-1-yl)-ethanone hydrochloride salt], the results for the IC50 in experiment [1] and in experiment [2] (setting [5]) were 17 µM and 42 µM, respectively.

Turning to `CC(=O)N1CCC2(CC1)CN(C(=O)CN1CCN[C@H](C)C1)c1cc(Cl)ccc12` [Example 31, 1-{1′-Acetyl-6-chloro-1,2-dihydrospiro[indole-3,4′-piperidine]-1-yl}-2-[(3R)-3-methylpiperazin-1-yl]ethan-1-one hydrochloride salt], the inhibition at 49 µM is 51% in experiment [1] (setting [3]) and 62% in experiment [2] (setting [4]).

As to `C[C@@H]1CN(CC(=O)N2CCc3ccc(S(=O)(=O)N(C)C)cc32)CCN1` [Example 32, 1-[2-((R)-3-Methyl-piperazin-1-yl)-acetyl]-2,3-dihydro-1H-indole-6-sulfonic acid dimethylamide], the IC50 in experiment [1] is 2.6 µM; in experiment [2] (setting [5]), 57 µM.

On to `C[C@@H]1CN(CC(=O)N2CCc3ccc(S(=O)(=O)c4ccccc4)cc32)CCN1` [Example 33, 1-(6-Benzene-sulfonyl-2,3-dihydro-indol-1-yl)-2-((R)-3-methyl-piperazin-1-yl)-ethanone hydrochloride salt], for which the IC50 is 1.2 µM in experiment [1], less than 10 µM in experiment [2] and 3.8 µM in experiment [2] (setting [5]).

On to `C[C@@H]1CN(CC(=O)N2CCc3cccnc32)CCN1` [Example 36, 1-(2,3-Dihydro-pyrrolo[2,3-b]pyridin-1-yl)-2-((R)-3-methyl-piperazin-1-yl)-ethanone dihydrochloride salt], for which the concentration for half-maximal inhibition (IC50) in experiment [1] came out at 240 µM. In addition, the inhibition at 500 µM in experiment [2] (setting [4]) was determined as 56%.

In the case of `C[C@@H]1CN(CC(=O)N2CCc3ccc(S(=O)(=O)N4CCCC4)cc32)CCN1` [Example 37, 2-((R)-3-Methyl-piperazin-1-yl)-1-[6-(pyrrolidine-1-sulfonyl)-2,3-dihydro-indol-1-yl]-ethanone hydrochloride salt], the figures for the IC50 in experiment [1] and in experiment [2] (setting [5]) were 1.8 µM and 23 µM, respectively.

On to `C[C@@H]1CN(CC(=O)N2CCc3cnc(-c4cc(Cl)ccc4F)cc32)CCN1` [Example 38, 1-[6-(5-Chloro-2-fluoro-phenyl)-2,3-dihydro-pyrrolo[3,2-c]pyridin-1-yl]-2-((R)-3-methyl-piperazin-1-yl)-ethanone hydrochloride salt], for which the IC50 in experiment [1] was 5.5 µM; in experiment [2], less than 10 µM; in experiment [2] (setting [5]), 2.1 µM.

Turning to `C[C@@H]1CN(CC(=O)N2CC(C)(C)c3c(Cl)cc(Cl)cc32)CCN1` [Example 46, 1-(4,6-Dichloro-3,3-dimethyl-2,3-dihydro-indol-1-yl)-2-((R)-3-methyl-piperazin-1-yl)-ethanone hydrochloride salt], the IC50 was found to be 9 µM in experiment [1] and 4.8 µM in experiment [2] (setting [6]).

With `C[C@@H]1CN(CC(=O)N2CC3(CCCC3)c3ccc(Cl)cc32)CCN1` [Example 50, 1-{6′-Chloro-1′,2′-dihydrospiro[cyclopentane-1,3′-indole]-1′-yl}-2-[(3R)-3-methyl-piperazin-1-yl]ethan-1-one hydrochloride salt], the IC50 in experiment [1] came to 14 µM; in experiment [2] (setting [6]), 15 µM.

For `CCS(=O)(=O)c1cc2c(cc1F)C(C)(C)CN2C(=O)CN1CCN[C@H](C)C1` [Example 51, 1-(6-Ethanesulfonyl-5-fluoro-3,3-dimethyl-2,3-dihydro-indol-1-yl)-2-((R)-3-methyl-piperazin-1-yl)-ethanone dihydrochloride salt], the IC50 in experiment [1] was found to be 1.1 µM; in experiment [2] (setting [7]), 3.2 µM.

For `CC(C)S(=O)(=O)c1cc2c(cc1F)C(C)(C)CN2C(=O)CN1CCN[C@H](C)C1` [Example 52, 1-[5-Fluoro-3,3-dimethyl-6-(propane-2-sulfonyl)-2,3-dihydro-indol-1-yl]-2-((R)-3-methyl-piperazin-1-yl)-ethanone diydrochloride salt], the IC50 was 0.95 µM in experiment [1] and 2.5 µM in experiment [2] (setting [6]).

Consider `C[C@@H]1CN(CC(=O)N2CC3(CC3)c3ccc(Cl)cc32)CCN1` [Example 53, 1-{6′-Chloro-1′,2′-dihydrospiro[cyclopropane-1,3′-indole]-1′-yl}-2-[(3R)-3-methyl-piperazin-1-yl]ethan-1-one hydrochloride salt], for which the IC50 in experiment [1] came out at 9.7 µM; in experiment [2] (setting [6]) it was 9.8 µM.

Take `CNC(=O)[C@H]1CN[C@H](C)CN1CC(=O)N1CC(C)(C)c2ccc(Cl)cc21` [Example 54, (2R,5R)-1-[2-(6-Chloro-3,3-dimethyl-2,3-dihydro-indol-1-yl)-2-oxo-ethyl]-5-methyl-piperazine-2-carboxylic acid methylamide hydrochloride salt]: the IC50 was determined as 1.8 µM in experiment [1] and 2.1 µM in experiment [2] (setting [6]).

On to `C[C@@H]1CN(CC(=O)N2CC3(CCC3)c3ccc(Cl)cc32)CCN1` [Example 55, 1-{6′-Chloro-1′,2′-dihydrospiro[cyclobutane-1,3′-indole]-1′-yl}-2-[(3R)-3-methyl-piperazin-1-yl]ethan-1-one hydrochloride salt], for which the half-maximal inhibitory concentration (IC50) in experiment [1] was 12 µM; in experiment [2] (setting [6]), 8.2 µM.

Consider `C[C@@H]1CN(CC(=O)N2CC(C)(C)c3cc(F)c(S(=O)(=O)C4CC4)cc32)CCN1` [Example 57, 1-(6-Cyclopropane-sulfonyl-5-fluoro-3,3-dimethyl-2,3-dihydro-indol-1-yl)-2-((R)-3-methyl-piperazin-1-yl)-ethanone dihydrochloride salt], for which the half-maximal inhibitory concentration (IC50) was found to be 0.81 µM in experiment [1] and 2 µM in experiment [2] (setting [7]).

For `COC[C@H]1CN[C@H](C)CN1CC(=O)N1CC(C)(C)c2cc(OC)ncc21` [Example 65, 1-(5-Methoxy-3,3-dimethyl-2,3-dihydro-pyrrolo[2,3-c]pyridin-1-yl)-2-((2R,5R)-2-methoxymethyl-5-methyl-piperazin-1-yl)-ethanone hydrochloride salt], the IC50 in experiment [1] was 6 µM; in experiment [2] (setting [6]), 1.3 µM.

For the molecule `COC[C@H]1CN[C@H](C)CN1CC(=O)N1CC(C)(C)c2cc(=O)n(C)cc21` [Example 66, 1-[2-((2R,5R)-2-Methoxymethyl-5-methyl-piperazin-1-yl)-acetyl]-3,3,6-trimethyl-1,2,3,6-tetrahydro-pyrrolo[2,3-c]pyridin-5-one hydrochloride salt], in experiment [1] (1 h, @ 10 μM, read-out: IC50 or PI Xiap: PI), the inhibition at 10 µM came out at 44%. In experiment [2] (3 h, Probe B, @ 3 μM, read-out: IC50 or PI cIAP1: PI), the inhibition at 3 µM was found to be 53%.

Consider `COC[C@H]1CN[C@H](C)CN1CC(=O)N1CC(C)(C)c2cc(=O)n(CC(C)C)cc21` [Example 73, 6-Isobutyl-1-[2-((2R,5R)-2-methoxy-methyl-5-methyl-piperazin-1-yl)-acetyl]-3,3-dimethyl-1,2,3,6-tetrahydro-pyrrolo[2,3-c]pyridin-5-one hydrochloride salt], for which, in experiment [1] (1 h, @ 3 μM, read-out: IC50 or PI Xiap: PI), the inhibition at 3 µM came out at 46%. For the same molecule, in experiment [2] (3 h, Probe B, @ 1 μM, read-out: IC50 or PI cIAP1: PI), the inhibition at 1 µM turned out to be 60%.
